The source of these data is patent publication US20090234023A1, “SUBSTITUTED HYDROXYACETOPHENONE DERIVATIVES” (Riemser Arzneimittel AG, priority 2004, published 2009).

In brackets after ≈: the same amount, converted by molar mass. Read-outs that look alike come from different tables or passages of the source.

The test system of one series is Micrococcus luteus. Briefly: Antimicrobial test (MIC), microtitre plates, TTC stain. Type of series: cell-based. The settings on record: 48 h, 36° C. The method, then:
(§1) The inoculum for the tests was prepared by diluting the microorganisms in 0.85% NaCl, the dilution was set to level 0.5 according to McFarland and checked at 580 nm in the spectrophotometer. The cell suspensions were diluted to 10^4 UFC/ml for the application in the tests. The MIC tests were carried out according to the instructions of J. N. P. Eloff (Planta Medica Vol. 64, pp. 711-713, 1998)) in microtitre plates with 96 wells. […] The inoculum (100 μl) was placed in all wells and the plates were incubated for 48 h at a temperature of 36° C. The antimicrobial activity was detected by adding 20 μl of a 0.5% aqueous solution of TTC (tetrazolium chloride, Merck) per well. The minimal inhibition concentration (MIC) was defined as the lowest concentration of the compound that inhibited visible growth (indicated by TTC stain).

Another series concerns E. falcium. The series is described as above. Type of series: cell-based. The settings on record: 48 h, 36° C. The protocol: as §1
For a further series, the system named is Escherichia coli. The description is as above. Format: cell-based. The following applies: 48 h, 36° C. The protocol:
as §1

In a further series the test system is Rhodococcus equi. The series is described as above. Type of series: cell-based. The settings on record: Rhodococcus (subgen. Prescottella) equi, 48 h, 36° C. The protocol:
as §1

The test system of another series is B. subtilis. Described as above. Format: cell-based. The settings on record: Bacillus subtilis, 48 h, 36° C. The method, then:
as §1

The next series deals with Candida albicans. The series is described as above. Type of series: cell-based. The settings on record: 48 h, 36° C. The method, then: as §1
The subject of another series is Salmonella choterasuis. The series is described as above. Type of series: cell-based. The settings on record: Salmonella choterasuis (Tables 3, 4: Salmonella), 48 h, 36° C. The protocol: as §1
Another series deals with Staphylococcus aureus. Described as above. Type of series: cell-based. The following applies: 48 h, 36° C. The protocol: as §1
For a further series, the system named is mamma (breast) MCF-7. The settings on record: MCF7, 48 hours incubation.
In a further series the test system is WI38 (fibroblasts). The series is described as follows: Comparison test on non-pathogenic line. The settings on record: WI38, non-pathogenic line for comparison.
For series [1], the system named is human cancer cell lines NCI-460, MCF-7, NCI-ADR, UACC-62, K-562, HT-29, 786-0, OVCAR-3, PC-3. The series is described as follows: SRB test, all tested human cancer cell lines (FIGS. 1-6). For orientation: In SRB staining, fixed cells bind dye roughly in proportion to their protein.
Description: (§2) The tests were carried out with the following human cancer cell lines:
(§3) The cells were cultivated in 25 ml cell culture flasks (Nunc) with 5 ml RPMI 1640 (Gibco BRL, Life Technologies) with 5% of foetal bovine serum.
(§4) The adhering cells were trypsinised (0.5 ml trypsin, Nuticell Nutrientes Cellulares). The trypsin was then inactivated by adding 5 ml 5% serum in RPMI 1640. A single cell suspension was prepared by pipetting carefully, the cells were counted, dilutions with an appropriate cell density, varying according to the cell line, were prepared and 100 μl/well were seeded in 96-well microtitre plates. The microtitre plates were pre-incubated for 24 hours at 37° C. to stabilise the cultures. The cells were incubated for 48 hours at 37° C. and 5% CO2 with 100 μl of the dilutions of the test substances (0.25; 2.5; 25 and 250 μg/ml, in three-fold). Doxirubicin (Sigma Chemical Co.) and tamoxifen (Sigma Chemical Co.) served as positive controls.
(§5) The sulforhodamine B (SRB) test for the antiproliferative activity was carried out according to the specifications of Skehan et al. (Journal of National Cancer Institute Vol. 82, pp. 1107-1118, 1990). The cells were fixed for one hour at 4° C. by protein precipitation with 50% trichloroacetic acid (TCA, Sigma Chemicals Co.) (50 μl/well, final concentration 10%)). The supernatant was discarded and the plates were washed with tap water five times. The cells were dyed for 30 minutes with 0.4% SRB in 1% acetic acid (50 μl/well) and subsequently washed four times with 1% acetic acid in order to remove the non-bound dye. The plates were dried and the bound dye was solubilised with 150 μl/well 10 mM Trizma buffer (Sigma Chemicals Co.). The optical density was determined with an automated plate reader (Molecular Devices Max Microplate Reader) at 540 nm. All determinations were conducted as threefold determination. The optical density was calculated with the Excel® program (Microsoft Office Package).
For series [2], the system named is skin cancer (melanoma) UACC-62. The settings on record: for ED50 (effective dosage which killed 50% of the human cancer cells): UACC62, 48 hours incubation.
Description: as §2, §3, §4, §5
For a further series, the system named is Lung NCI-460. The following applies: for ED50 (effective dosage which killed 50% of the human cancer cells): NCI460, 48 hours incubation; for cytocidal activity: NCI-460 (lung cancer cell line).
A further series relates to S. epidermides. Briefly: Antimicrobial test (MIC), microtitre plates, TTC stain. Format: cell-based. The following applies: 48 h. The protocol: as §1
The subject of the next series is S. falcium. The description is as above. Format: cell-based. The following applies: 48 h, 36° C. The protocol: as §1
In a further series the test system is E. faecium. Described as above. Type of series: cell-based. The settings on record: Enterococcus faecium, 48 h, 36° C. The method, then:
as §1

Description for Lung NCI-460: as §2, §3, §4, §5
Description for mamma (breast) MCF-7: as §2, §3, §4
The sulforhodamine B (SRB) test for the antiproliferative activity was carried out according to the specifications of Skehan et al. (Journal of National Cancer Institute Vol. 82, pp. 1107-1118, 1990). […] The optical density was determined with an automated plate reader (Molecular Devices Max Microplate Reader) at 540 nm. […] The optical density was calculated with the Excel® program (Microsoft Office Package).

For `CC(=O)c1cc(CC=C(C)C)ccc1O` [Compound L2], the MIC was 500 to 1000 µg/mL (≈ 2450 to 4900 µM) in the series with Micrococcus luteus; 500 to 1000 µg/mL (≈ 2450 to 4900 µM) in the series on E. falcium; 50 µg/mL (≈ 245 µM) in the series with Escherichia coli; > 1000 µg/mL against Rhodococcus equi; 500 to 1000 µg/mL (≈ 2450 to 4900 µM) against B. subtilis; 50 µg/mL (≈ 245 µM) in the series on Candida albicans. Moreover, the MIC is 500 to 1000 µg/mL (≈ 2450 to 4900 µM) in the series on Salmonella choterasuis and > 1000 µg/mL in the series with Staphylococcus aureus. The “ED50 (effective dosage which killed 50% of the human cancer cells)” value in the series with mamma (breast) MCF-7 came to 6.0 µg/mL; in series [2] it was 4.2 µg/mL; in the series with Lung NCI-460, 9.0 µg/mL. For the same compound, the results for the activity against fibroblasts entry in the series on WI38 (fibroblasts) and in the series with WI38 (fibroblasts) (listed as 1-[2-Hydroxy-5-(3-methylbut-2-enyl)ethanone) were “not active against fibroblasts” and “without damaging the fibroblasts”, respectively. Further, the “activity on all cell lines” value in series [1] (at concentrations ranging between 0.5 and 250 μg/ml) is listed as “very strong activity”.

For the compound `CC(=O)c1ccc(OCC=C(C)C)cc1OCC=C(C)C` [2,4O, 1-[2,4-bis(3-methylbut-2-enyloxy)phenyl]ethanone], the MIC in the series on S. epidermides, against Micrococcus luteus, in the series on Escherichia coli, against Rhodococcus equi, in the series on B. subtilis and against Candida albicans was 500 to 1000 µg/mL (≈ 1730 to 3470 µM) throughout. Besides, the MIC in the series with Salmonella choterasuis, with S. falcium, in the series on E. faecium and in the series on Staphylococcus aureus was 500 to 1000 µg/mL (≈ 1730 to 3470 µM) throughout. Besides, the “concentration at which cytocidal activity begins” value in series [1] (against all tested cell lines) turned out to be 250 µg/mL. Moreover, the “concentration at which cytostatic activity begins” value in series [1] (against all tested cell lines) is 25 µg/mL.

`O=C(N[C@H](CO)[C@H](O)c1ccc([N+](=O)[O-])cc1)C(Cl)Cl` [Chloramphenicol, reference compound]: the MIC was 40 µg/mL (≈ 124 µM) in the series on S. epidermides (S. epidermides, 36° C., read-out: MIC); 50 µg/mL (≈ 155 µM) against Micrococcus luteus; 120 µg/mL (≈ 371 µM) in the series on E. falcium; 40 µg/mL (≈ 124 µM) with Escherichia coli; 40 µg/mL (≈ 124 µM) in the series on Rhodococcus equi; 20 µg/mL (≈ 61.9 µM) in the series with B. subtilis. For the same compound, the MIC came out at 60 µg/mL (≈ 186 µM) against Salmonella choterasuis, 120 µg/mL (≈ 371 µM) in the series with S. falcium, 120 µg/mL (≈ 371 µM) with E. faecium and 20 µg/mL (≈ 61.9 µM) in the series with Staphylococcus aureus.

As to `C=CC(C)(C)c1cc(CC=C(C)C)cc(C(C)=O)c1O` [LMK7, 1-[3-(1,1-dimethylallyl)-2-hydroxy-5-(3-methylbut-2-enyl)phenyl]-ethanone], the “concentration at which cytostatic activity begins” value in [1] (against all tested cell lines) is 25 µg/mL. Also, the cytocidal activity result with Lung NCI-460 is “did not, however, exhibit any cytocidal activity”.

For the compound `CC(=O)c1ccc(OCC=C(C)C)cc1` [LP1, 1-[4-(3-methylbut-2-enyloxy)phenyl]ethanone], the melting point was 47 °C. This compound also yielded an MIC against S. epidermides of 60 to 120 µg/mL (≈ 294 to 587 µM). Moreover, in the series on Micrococcus luteus, the MIC was > 1500 µg/mL. Besides, in the series with Escherichia coli, the MIC is > 1500 µg/mL. Also, the MIC in the series on Rhodococcus equi was > 1500 µg/mL. The MIC in the series on B. subtilis is > 1500 µg/mL. Also, the MIC against Candida albicans was > 1500 µg/mL. This compound registered an MIC in the series with Salmonella choterasuis of 120 to 250 µg/mL (≈ 587 to 1220 µM). Besides, the MIC with S. falcium was > 1500 µg/mL. For the same compound, the MIC in the series on E. faecium is > 1500 µg/mL. The MIC against Staphylococcus aureus is > 1500 µg/mL. Moreover, in [1] (against all tested cell lines), the “concentration at which cytocidal activity begins” value worked out at 250 µg/mL and the “concentration at which cytostatic activity begins” value was 25 µg/mL.

With `CC(=O)c1ccccc1OCC=C(C)C` [Compound L1, 1-[2-(3-methylbut-2-enyloxy)phenyl]ethanone], the MIC against Micrococcus luteus is 250 to 500 µg/mL (≈ 1220 to 2450 µM); in the series with E. falcium, 250 µg/mL (≈ 1220 µM); in the series on Escherichia coli, > 1000 µg/mL; with Rhodococcus equi, > 1000 µg/mL; in the series on B. subtilis, 500 to 1000 µg/mL (≈ 2450 to 4900 µM); in the series with Candida albicans, 60 µg/mL (≈ 294 µM). The MIC with Salmonella choterasuis turned out to be 250 µg/mL (≈ 1220 µM); against Staphylococcus aureus, 500 µg/mL (≈ 2450 µM). The “ED50 (effective dosage which killed 50% of the human cancer cells)” value in the series with mamma (breast) MCF-7 came out at 25.0 µg/mL; in series [2] it was 45.0 µg/mL; in the series on Lung NCI-460 it was 25.0 µg/mL. Further, the “cytostatic activity (inhibition of cell growth)” value in [1] (against all tested cell lines) is “cytostatic activity”. For the same compound, the cytocidal activity entry (in series [2] (UACC-62); with Lung NCI-460) was “cytocidal activity” throughout.

`CC(=O)c1cc(CC=C(C)C)ccc1OCC=C(C)C` [Compound L3, 1-[5-(3-methylbut-2-enyl)-2-(3-methylbut-2-enyloxy)phenyl]-ethanone]: the MIC in the series with Micrococcus luteus is 500 to 1000 µg/mL (≈ 1840 to 3670 µM); in the series on E. falcium, 500 to 1000 µg/mL (≈ 1840 to 3670 µM); against Escherichia coli it was > 1000 µg/mL; against Rhodococcus equi, > 1000 µg/mL; in the series with B. subtilis, > 1000 µg/mL; against Candida albicans, 900 µg/mL (≈ 3300 µM). Besides, the results for the MIC in the series on Salmonella choterasuis and against Staphylococcus aureus were > 1500 µg/mL and > 1000 µg/mL, respectively.

In general, MIC refers to the least concentration at which growth counts as inhibited. What is called melting point is the temperature of the solid-liquid transition.
